Where two headings read alike, the source gives them in different places.

Results on 15 compounds are retold here after PMC4861662 (ChemMedChem, 2016).

Data set [1] in a line: Phase solubility diagram. As to conditions: for Highest drug concentration achieved with container / Initial slope of the PSD / Ka of container•drug complex: container SBE-β-CD; for Initial slope of the PSD: 20 mM sodium phosphate buffered D2O, pD 7.4, rt; for Ka of container•drug complex: from PSD slope and S0 (equation 1).
Data set [2] can be described thus: Phase solubility diagram. As to conditions: container M2.
Data set [3] is described as follows: Phase solubility diagram. As to conditions: for Highest drug concentration achieved with container / Initial slope of the PSD / Krel / Ka of container•drug complex: container M2C2; for Initial slope of the PSD: 20 mM sodium phosphate buffered D2O, pD 7.4, rt; for Krel: referenced to the weakest binding container (generally HP-β-CD); for Ka of container•drug complex: from PSD slope and S0 (equation 1).

For data set [4] the following is noted: container M2, ref [20a],[21a], cited from earlier work; for Initial slope of the PSD: 20 mM sodium phosphate buffered D2O, pD 7.4, rt; for Krel: referenced to the weakest binding container (generally HP-β-CD), TL = too large to be determined because slope ≈ 1.
For data set [5] the following is noted: container HP-β-CD; from PSD slope and S0 (equation 1); ref [20a],[21a]; cited from earlier work.
Data set [6] in a line: Phase solubility diagram. As to conditions: for Initial slope of the PSD / Ka of container•drug complex / Krel: container M2C4; for Initial slope of the PSD: 20 mM sodium phosphate buffered D2O, pD 7.4, rt, Gel = gel formed; for Ka of container•drug complex: from PSD slope and S0 (equation 1); for Krel: referenced to the weakest binding container (generally HP-β-CD).
Data set [7] can be described thus: Inherent solubility of the drug. As to conditions: 20 mM sodium phosphate buffered D2O, pD 7.4, rt.
A short description of data set [8]: Inherent solubility of container by 1H NMR assay of saturated solution. The class given is physicochemical. As to conditions: SBE-β-CD.

On to `COc1cc2c(cc1O)CC[C@@H]1[C@@H]2CC[C@]2(C)[C@@H](O)CC[C@@H]12` [2-Methoxy estradiol], for which the “Highest drug concentration achieved with container” value (“Highest drug concentration achieved” below) in data set [1] is on record as 35.9 mM; in data set [2], 6.42 mM; in data set [3], 34.1 mM. For the same compound, the “Initial slope of the PSD” value in data set [1] was 0.21; in data set [3] it was 0.49; in data set [4], 0.79. In addition, the figures for the Krel in data set [3] and in data set [4] were 12/– and 47/–, respectively.

Consider `CCCSc1ccc2nc(NC(=O)OC)[nH]c2c1` [Albendazole], for which the “Highest drug concentration achieved” value came to 3.94 mM in data set [1], 4.48 mM in data set [2] and 2.78 mM in data set [3]. The “Initial slope of the PSD” value in data set [1] was 0.027; in data set [3], 0.035; in data set [4] it was 0.48. Also, the “Ka of container•drug complex” value in data set [1] was 11000 M⁻¹; in data set [3], 14000 M⁻¹; in data set [5], 5400 M⁻¹. Moreover, the Krel in data set [3] is 2.4; in data set [4], 62.

Regarding `CCCCc1oc2ccccc2c1C(=O)c1cc(I)c(OCCN(CC)CC)c(I)c1` [Amiodarone], the “Initial slope of the PSD” value in data set [1] is given as 0.60; in data set [3], 0.65; in data set [4] it was 1.03. The “Ka of container•drug complex” value in data set [1] is 23000 M⁻¹; in data set [3], 28000 M⁻¹; in data set [5], 1500 M⁻¹. In data set [3], this compound showed a Krel of 19. Besides, in data set [6] (M2C4 used as solubilizing agent), the “concentration of M2C4 above which gels form with drug” value is listed as “greater than 16 mM”.

Turning to `O=C1CCc2ccc(OCCCCN3CCN(c4cccc(Cl)c4Cl)CC3)cc2N1` [Aripiprazole], the “Highest drug concentration achieved” value is on record as 8.44 mM in data set [1], 3.20 mM in data set [2] and 9.26 mM in data set [3]. Moreover, the “Initial slope of the PSD” value was 0.048 in data set [1], 0.28 in data set [3] and 0.31 in data set [4]. Moreover, the “Ka of container•drug complex” value turned out to be 2200 M⁻¹ in data set [1] and 17000 M⁻¹ in data set [3]. Moreover, the Krel in data set [3] is on record as 7.7; in data set [4], 8.8.

`CC[C@@]1(O)C(=O)OCc2c1cc1n(c2=O)Cc2cc3ccccc3nc2-1` [Camptothecin]: the “Highest drug concentration achieved” value is listed as 0 mM in data set [1], 11.6 mM in data set [2] and 28.3 mM in data set [3]. Also, the “Initial slope of the PSD” value in data set [1] is reported as 0; in data set [3] it was 0.41; in data set [4], 1.1. Also, the “Ka of container•drug complex” value in data set [3] was 13000 M⁻¹. In data set [3], this compound displayed a Krel of 1.

For the compound `C(=C\c1ccccc1)/CN1CCN(C(c2ccccc2)c2ccccc2)CC1` [Cinnarizine], in data set [1], the “Initial slope of the PSD” value was determined as 0.008 and the “Ka of container•drug complex” value was 580 M⁻¹. Further, in data set [3], the “Initial slope of the PSD” value stood at 0.26, the “Ka of container•drug complex” value turned out to be 25000 M⁻¹ and the Krel stood at 170.

Regarding `C[C@]12CC[C@@H]3c4ccc(O)cc4CC[C@H]3[C@@H]1CC[C@@H]2O` [Estradiol], the “Initial slope of the PSD” value in data set [1] was 0.59; in data set [3] it was 0.67; in data set [6] it was 0.59; in data set [4] it was 0.92. For the same compound, the “Ka of container•drug complex” value in data set [1] was 170000 M⁻¹; in data set [3], 230000 M⁻¹; in data set [5] it was 26000 M⁻¹; in data set [6] it was 160000 M⁻¹. Moreover, the Krel in data set [3] is reported as 9.1; in data set [6], 6.5; in data set [4] it was 51.

Regarding `C#C[C@]1(O)CC[C@H]2[C@@H]3CCc4cc(O)ccc4[C@H]3CC[C@@]21C` [Ethynyl Estradiol], the figures for the “Highest drug concentration achieved” value in data set [1], in data set [2] and in data set [3] were 131 mM, 10.5 mM and 33.6 mM, respectively. In addition, the “Ka of container•drug complex” value in data set [5] was 36000 M⁻¹. Moreover, the “Initial slope of the PSD” value in data set [4] is 1.1.

Take `COc1ccc2c(c1)c(CC(=O)O)c(C)n2C(=O)c1ccc(Cl)cc1` [Indomethacin]: the figures for the “Highest drug concentration achieved” value in data set [1], in data set [2] and in data set [3] were 9.92 mM, 6.70 mM and 6.69 mM, respectively. Moreover, the “Initial slope of the PSD” value is reported as 0.23 in data set [1], 0.13 in data set [3] and 0.47 in data set [4]. In addition, the “Ka of container•drug complex” value is 51000 M⁻¹ in data set [1], 25000 M⁻¹ in data set [3] and 2400 M⁻¹ in data set [5]. The Krel is 11 in data set [3] and 67 in data set [4].

Regarding `N[C@@H](Cc1ccc(N(CCCl)CCCl)cc1)C(=O)O` [Melphalan], the “Highest drug concentration achieved” value is 87.8 mM in data set [1], 16.1 mM in data set [2] and 38.2 mM in data set [3]. The “Initial slope of the PSD” value in data set [1] was 0.50; in data set [3], 0.43; in data set [4] it was 1.1. Further, the Krel in data set [3] is on record as 6.0/–.

As to `O=C(NC1=CC(=O)[C@H]2O[C@H]2[C@H]1O)c1cc2ccccc2[nH]c1=O` [PBS-1086], the “Highest drug concentration achieved” value was found to be 0 mM in data set [1], 12.5 mM in data set [2] and 16.5 mM in data set [3]. The “Initial slope of the PSD” value in data set [1] is 0; in data set [3], 0.70; in data set [4] it was 0.89. In addition, in data set [3], the “Ka of container•drug complex” value came to 510000 M⁻¹. In addition, the figures for the Krel in data set [3] and in data set [4] were 1 and 3.5, respectively. Moreover, the “S0, inherent solubility of the drug” value in data set [7] worked out at 0.0045 mM.

Regarding `CC/C(=C(\c1ccccc1)c1ccc(OCCN(C)C)cc1)c1ccccc1` [Tamoxifen], in data set [5], the “Ka of container•drug complex” value is 2400 M⁻¹. Moreover, in data set [4], the “Initial slope of the PSD” value is 0.10 and the Krel is 3.9.

With `Cc1c(Cl)cccc1Nc1ccccc1C(=O)O` [Tolfenamic acid], the “Highest drug concentration achieved” value was determined as 8.07 mM in data set [1], 5.6 mM in data set [2] and 6.79 mM in data set [3]. The “Initial slope of the PSD” value was 0.11 in data set [1], 0.11 in data set [3] and 0.54 in data set [4]. The “Ka of container•drug complex” value in data set [1] is 64000 M⁻¹; in data set [3], 66000 M⁻¹; in data set [5], 4100 M⁻¹. The Krel in data set [3] is recorded as 16; in data set [4], 150.

For the compound `C[C@@H](c1ncncc1F)[C@](O)(Cn1cncn1)c1ccc(F)cc1F` [Voriconazole], the “Highest drug concentration achieved” value was found to be 94.7 mM in data set [1], 9.23 mM in data set [2] and 61.9 mM in data set [3]. Besides, the “Initial slope of the PSD” value in data set [1] stood at 0.53; in data set [3], 0.89; in data set [6], 0.85. In addition, the results for the “Ka of container•drug complex” value in data set [1], in data set [3] and in data set [6] were 30000 M⁻¹, 210000 M⁻¹ and 140000 M⁻¹, respectively. The gel formation entry in data set [3] (68 mM container M2C2) and in data set [6] (68 mM container M2C4) was “no evidence of gel formation” throughout. In addition, the Krel in data set [3] stood at 29; in data set [6] it was 19.

As for “sulfobutylether-β-cyclodextrin [SBE-β-CD]”, in data set [1] (SBE-β-CD versus HP-β-CD, averaged over drugs of the test set), the “average Krel relative to HP-β-CD” value came to 12. The “inherent solubility of container” value in data set [8] is reported as above 175 mM.
